Patent US9918964B2, “Reducing platelet activation, aggregation and platelet-stimulated thrombosis or blood coagulation by reducing mitochondrial respiration” (priority 2010, dated 2018)
In brackets after ≈: the same amount, converted by molar mass. Several values for one entry are separate records, joined by “and”; a condition that tells them apart may be missing. Identical values can stand only once. Like-named read-outs stand apart in the source and are kept apart here.

How the values were obtained:
platelets in whole blood = assay: Platelet function testing with the Hemostasis Mechanism Analyzer (HMA): clumping, sticking, clotting in whole blood; assay type: cell-based, human; conditions: for activity at 3300 µg/mL / activity at 6700 µg/mL / activity at 11700 µg/mL / activity at 23300 µg/mL / activity at 5000 µg/mL / activity at 700 µg/mL: Homo sapiens, Platelet; for activity at 3300 µg/mL: Dosage (mg/ml) 3.3; for activity at 11700 µg/mL: Dosage (mg/ml) 11.7; for activity at 23300 µg/mL: Dosage (mg/ml) 23.3; for activity in the platelet assays (active agent or inactive): in vitro whole blood assay, clumping, sticking, clotting; for activity at 5000 µg/mL: Dosage (mg/ml) 5; for activity at 700 µg/mL: Dosage (mg/ml) 0.7
[1] = tested on: mitochondria isolated from liver of tilapia (Sarotheridon mossambica); assay type: biochemical
[2] = 0 dosage = 100, read-out: % clot time increase
[3] = 0 dosage = 100, read-out: % clump time increase
[4] = 0 dosage = 100, read-out: % stick time increase
[5] = Dosage (mg/ml) 6.7, 0 dosage = 100, read-out: % clot time increase
[6] = Dosage (mg/ml) 6.7, 0 dosage = 100, read-out: % clump time increase
[7] = Dosage (mg/ml) 6.7, 0 dosage = 100, read-out: % stick time increase

## 1H-triazole [Compound 99]
Platelets in whole blood
  % clot time increase: 108% and 103%
  % clump time increase: 103% and 99%
  % stick time increase: 99% and 104%

## O=C(O)CCCCC1CCSS1 (single isomer, unassigned) [Compound 90, 5-[(3R or 3S)-dithiolan-3-yl]pentanoic acid]
Platelets in whole blood; [2]
  activity at 3300 µg/mL: 97%
  activity at 11700 µg/mL: 100%
  activity at 23300 µg/mL: 110%
Platelets in whole blood; [3]
  activity at 3300 µg/mL: 102%
  activity at 11700 µg/mL: 110%
  activity at 23300 µg/mL: 129%
Platelets in whole blood; [4]
  activity at 3300 µg/mL: 104%
  activity at 11700 µg/mL: 110%
  activity at 23300 µg/mL: 136%
Platelets in whole blood; [5]
  activity at 6700 µg/mL: 104%
Platelets in whole blood; [6]
  activity at 6700 µg/mL: 97%
Platelets in whole blood; [7]
  activity at 6700 µg/mL: 100%
Platelets in whole blood
  activity in the platelet assays (active agent or inactive): inactive
[1]
  IC50 (mg/ml) mitochondria inhibition: 37.1 mg/mL (≈ 180 mM)

## c1ccc(-c2cnn[nH]2)cc1 [Compound 2, 5-phenyl-1H-triazole]
Platelets in whole blood
  activity in the platelet assays (active agent or inactive): met the criteria for active agents

## Cn1cncn1 [Compound 8, 1-Methyl-1,2,4-triazole]
Platelets in whole blood; [2]
  activity at 3300 µg/mL: 104%
  activity at 5000 µg/mL: 105%
Platelets in whole blood; [3]
  activity at 3300 µg/mL: 105%
  activity at 5000 µg/mL: 121%
Platelets in whole blood; [4]
  activity at 3300 µg/mL: 98%
  activity at 5000 µg/mL: 118%
Platelets in whole blood; [5]
  activity at 6700 µg/mL: 105%
Platelets in whole blood; [6]
  activity at 6700 µg/mL: 130%
Platelets in whole blood; [7]
  activity at 6700 µg/mL: 121%

## FC(F)(F)c1ccc(-c2nnn[nH]2)cc1 [Compound 18, 5-[4-(trifluoromethyl)phenyl]-1H-tetrazole]
Platelets in whole blood; [5]
  activity at 6700 µg/mL: 106%
Platelets in whole blood; [6]
  activity at 6700 µg/mL: 127%
Platelets in whole blood; [7]
  activity at 6700 µg/mL: 106%

## OC(c1ccccc1)c1nnn[nH]1 (stereo not shown) [Compound 24, phenyl(1H-tetrazol-5-yl)methanol]
Platelets in whole blood; [2]
  activity at 700 µg/mL: 96%
  activity at 3300 µg/mL: 105%
  activity at 5000 µg/mL: 113%
Platelets in whole blood; [3]
  activity at 700 µg/mL: 109%
  activity at 3300 µg/mL: 126%
  activity at 5000 µg/mL: 156%
Platelets in whole blood; [4]
  activity at 700 µg/mL: 105%
  activity at 3300 µg/mL: 124%
  activity at 5000 µg/mL: 152%
Platelets in whole blood; [5]
  activity at 6700 µg/mL: 116%
Platelets in whole blood; [6]
  activity at 6700 µg/mL: 160%
Platelets in whole blood; [7]
  activity at 6700 µg/mL: 143%

## COc1ccc(-c2nnn[nH]2)cc1 [Compound 26, 5-(4-methoxyphenyl)-1H-tetrazole]
Platelets in whole blood; [5]
  activity at 6700 µg/mL: 102%
Platelets in whole blood; [6]
  activity at 6700 µg/mL: 122%
Platelets in whole blood; [7]
  activity at 6700 µg/mL: 118%

## Cn1cnnc1S [Compound 33, 4-methyl-1,2,4-triazole-3-thiol]
Platelets in whole blood; [2]
  activity at 5000 µg/mL: 100%
Platelets in whole blood; [3]
  activity at 5000 µg/mL: 100%
Platelets in whole blood; [4]
  activity at 5000 µg/mL: 119%
Platelets in whole blood; [5]
  activity at 6700 µg/mL: 108%
Platelets in whole blood; [6]
  activity at 6700 µg/mL: 115%
Platelets in whole blood; [7]
  activity at 6700 µg/mL: 123%

## Cc1ncsc1CCCl [Compound 45, 5-(2-chloroethyl)-4-methyl-thiazole]
Platelets in whole blood; read-out: % clot time increase
  activity at 6700 µg/mL: 101%
Platelets in whole blood; read-out: % clump time increase
  activity at 6700 µg/mL: 119%
Platelets in whole blood; read-out: % stick time increase
  activity at 6700 µg/mL: 108%

## C[N+](C)(C)[C@@H](Cc1c[nH]c(=S)[nH]1)C(=O)[O-] [Compound 50, (2S)-3-(2-thioxo-1,3-dihydroimidazol-4-yl)-2-(trimethylammonio) propanoate]
Platelets in whole blood
  activity in the platelet assays (active agent or inactive): inactive
[1]
  IC50 (mg/ml) mitochondria inhibition: 86 mg/mL (≈ 375 mM)

## C[N+](C)(C)[C@H](Cc1c[nH]c(=S)[nH]1)C(=O)[O-] [Compound 51, (2R)-3-(2-thioxo-1,3-dihydroimidazol-4-yl)-2-(trimethylammonio) propanoate]
Platelets in whole blood
  activity in the platelet assays (active agent or inactive): inactive
[1]
  IC50 (mg/ml) mitochondria inhibition: 93.8 mg/mL (≈ 409 mM)
